Laboratory results from publication PMC9537177, “A VEGFR targeting peptide-drug conjugate (PDC) suppresses tumor angiogenesis in a TACE model for hepatocellular carcinoma therapy” (Cell Death Discovery, 2022).
Where two headings read alike, the source gives them in different places. Square brackets hold non-standard residues; d marks the D form. Peptide text beside a SMILES is read from it. Aib = CC(C)(N)C(=O)O

How the values were obtained:
VX2 liver tumor = assay: VX2 rabbit liver tumor model with TAE/TACE: tumor growth, necrosis, apoptosis, proliferation, angiogenesis; type: in vivo, New Zealand white rabbits; settings: for mean tumor volume at 7 days after TAE procedure: 0.5 mL lipiodol emulsion into tumor-feeding artery, QR-KLU 4 mg/kg; for mean tumor volume at 7 days after TAE procedure / tumor growth rate (V7/V0 × 100%) / mean tumor necrosis rate: DOX 2 mg/kg, KLU 4 mg/kg; for mean tumor volume at 7 days after TAE procedure / mean tumor volume one day before TAE procedure: MR images, 24 rabbits evenly in four groups; for mean tumor volume at 7 days after TAE procedure / mean tumor necrosis rate / mean tumor volume one day before TAE procedure: mean ± SD; for tumor growth rate (V7/V0 × 100%): 7 days after TAE, NS group 276.4%; for tumor growth rate (V7/V0 × 100%) / mean tumor necrosis rate: QR-KLU 4 mg/kg in lipiodol; for mean proportion of apoptotic cells in tumor (TUNEL) / mean proportion of proliferating cells in tumor (Ki67) / mean tumor necrosis rate: 7 days after treatment; for mean proportion of apoptotic cells in tumor (TUNEL) / mean proportion of proliferating cells in tumor (Ki67): versus NS group; for mean tumor necrosis rate: H&E staining; for mean tumor volume one day before TAE procedure: baseline, V = a*b^2/2, VX2 rabbits
Experimental: New Zealand white rabbits (2.5-3 kg) were purchased from the Laboratory Animal Center of Tongji Medical College of Huazhong University of Science and Technology (Wuhan, China). All the animal experimental procedures were performed in accordance with the National Institutes of Health Guidelines for the Care and Use of Laboratory Animals and the protocol was approved by the Ethics Committee of Tongji Medical College, Huazhong University of Science and Technology. Blinding was not possible in most animal experiments. The rabbit VX2 liver tumor model was established according to the method reported by Qian K et al.. […] The acquisition parameters of the sequence are as follows: […], TR 2750 ms, TE 65 ms, the field of view 120 mm × 120 mm, Slice thickness 3 mm in the transverse plane, matrix 152 × 152. The multi-vane technique was used to reduce artifacts and improve image quality, acquisition time 3 min […]; […] Seven days after TACE procedure, tumor size was evaluated again by MR scan and the tumor volume was calculated by formula: V = a * b^2/2 (a, long diameter; b, short diameter). And tumor growth rate was calculated by formula: […] Finally, the VX2 rabbits were sacrificed and the tumor tissues were harvested for biochemical analysis and histopathological examination. […] The IHC staining procedures were performed as previously described. Briefly, the sections were blocked in 3% H2O2 for 25 min and then incubated with goat serum for 15 min. Subsequently, the sections were first washed and incubated with anti-VEGF (1:200, Abcam, USA), and anti-CD31 (1:20; Abcam, USA) overnight at 4 °C, and then incubated with second antibody (Abcam, USA) at 37 °C for 50 min. Next, the sections were stained with 3, 3'-diaminobenzidine (DAB, Service bio, Wuhan […] Biotechnology Co., Ltd., China) for 6 min and rinsed and stained in hematoxylin for 30 s. The sections were then dehydrated in gradient alcohol and sealed in neutral resins. VEGF expression was assessed by semiquantitative IHC based on staining intensity and density, the staining intensity was scored as 0 (negative), 1 (weak), 2 (moderate), and 3 (strong), while the staining density was scored on the basis of the percentage of positively stained cells: 0 (0%), 1 (1-25%), 2 (26-50%), 3 (51-75%), and 4 (76-100%). The total VEGF IHC score was calculated by multiplying the intensity score by the density score. Microvessel density (MVD) was calculated according to the method developed by Weidner et al.

Huh7 cells = assay: Cell viability (CCK8) assay, Huh7; type: cell-based, human; settings: for IC50: CCK8, 48 h treatment in medium with 5% FBS, absorbance 450 nm, mean ± SD, read-out: IC50, cytotoxicity in Huh7 cells
Experimental: (§1) All reagents were purchased from Gibco. All these cells were routinely tested for mycoplasma contamination and tested negative and maintained in a humidified incubator containing 5% CO2 at 37 °C. Cell viability for different cell lines were measured by cell counting kit-8 (CCK8) assays. The cells were incubated on a 96-well plate for 24 h in growth medium prior to drug treatment. […] Then CCK8 (10 μL) was added and the cells were incubated for 1 h at 37 °C with 5% CO2. Absorbance was measured with a microplate reader (Bio-Rad) at a wavelength of 450 nm.

[1] = Therapeutic safety in VX2 tumor-bearing rabbits (organ H&E, serum biochemistry); settings: before and 1, 3, 7 days after treatment; 4 mg/kg in lipiodol via TAE
Experimental: Twenty-four VX2 tumor-burdened rabbits were evenly divided into four groups. After fasting for 12 h, the rabbits were anesthetized by intravenous injection of pentobarbital sodium solution (2 wt.%, 30 mg/kg). The rabbit’s right femoral artery was dissected and a 4-F Cobra catheter (Cook, Inc., Bloomington, Indiana) was inserted into the celiac artery, hepatic arteriography was then performed under the guidance of digital subtraction angiography (DSA), and a 2.7-F coaxial microcatheter (Terumo, Tokyo, Japan) was super-selectively inserted into the tumor donor branch subsequently. The emulsion of drugs and lipiodol were slowly injected into the tumor-feeding artery through the above microcatheter at a speed of 0.5 mL/min. […] After obtaining all DSA images, the sheaths and catheters were removed.
Seven days after treatment, the liver tumors, hearts, lungs, kidneys and spleens were harvested and fixed in 4% phosphate-buffered paraformaldehyde, the specimens were embedded in paraffin blocks and cut into 5‐μm‐thick sections. Following the manufacturer’s guidelines, the sections were stained with haematoxylin and eosin (H&E) for the evaluation of organ toxicity and tumor necrosis, Ki-67 staining and transfer-mediated dUTP nick end labeling (TUNEL) technique were used to detect tumor proliferation and apoptosis, respectively.
Blood samples were collected before treatment and at 1, 3, 7 days after treatment. The blood samples were stood at room temperature for 30 min, and the serum was obtained by centrifugation (room temperature, 8000 rpm, 10 min) for assessment of alanine aminotransferase (ALT), aspartate aminotransferase (AST), total bilirubin (TBIL) and creatinine (CREA). The assays were performed using the commercially ready-made kits following the manufacturers’ instructions.

HUVEC cells [2] = assay: Cell viability (CCK8) assay, HUVEC; type: cell-based, human
Experimental: as §1

HUVEC cells [3] = assay: Wound-healing assay of HUVEC cells; type: cell-based, human; settings: 24 h
Experimental: Wound-healing assay was performed according to the protocols reported by Liang et al.. Briefly, HUVEC cells were plated into 12-well plate and grown to create a confluent monolayer. The monolayer was grazed in a straight line to create a “scratch” with a pipette tip. Markings were created close to the scratch to be used as reference points. Then cells were treated with different peptides for 24 h at 37 °C. Images were collected with a Leica DFC480 camera on a phase-contrast microscope equipped with a 10 × objective at room temperature. The free area of the wound was measured by image software. Supplementary Figure S1. Wound healing assay to detect the cell migration influenced by different peptides.

Huh 7 cells = settings: 80 μM, 24 h, Annexin V-PI FACS
Experimental: Viable cells, early apoptotic cells, necrotic cells, late apoptotic cells were represented by Q4, Q3, Q2 and Q1 respectively.
(§2) The apoptosis assay was performed according to the manufacturer’s instructions using an Annexin V: Fluorescein Isothiocyanate (FITC) Apoptosis Detection Kit I (BD Pharmingen™). Briefly, Huh 7 or HUVEC cells were seeded in a 12-well plate and allowed to grow for 24 h in medium with 10% FBS. Then, the cells were treated with the different peptides in medium with 5% FBS for 24 h’ incubation. The cells were harvested with 0.25% trypsin/EDTA, washed twice with PBS and suspended in 1 × binding buffer. The suspended cells were treated with FITC-labeled Annexin V and propidium iodide (PI) as the protocol indicated and then analyzed by flow cytometry to determine the apoptotic cells. The cells with positive fluorescence intensity signals for both FITC and PI were used for the apoptotic cell count.

HUVEC cells [4] = assay: Annexin V-FITC/PI cell apoptosis assay, HUVEC; type: cell-based, human; settings: 80 μM, 24 h, Annexin V-PI FACS
Experimental: The improved proapoptotic activity of QR-KLU was further confirmed by Annexin V-PI staining through FACS. Viable cells, early apoptotic cells, necrotic cells, late apoptotic cells were represented by Q4, Q3, Q2 and Q1 respectively. […] Besides, QR-KLU induced cell apoptosis in a dose-dependent manner. […] The percentage of apoptotic cells in KLU peptide at 20 μM were about 25% in both Huh7 cells and HUVEC cells.
as §2
Supplementary Figure S2. Cell apoptosis of HUVEC induced by different peptides. HUVEC cells were treated with PBS, 80μM QR, 20μM KLU, 5μM QR-KLU, 10μM QR-KLU for 24 hours before detection by FACS.

Row | Compound | mean tumor volume at 7 days after TAE procedure (VX2 liver tumor) [mm^3] | tumor growth rate (V7/V0 × 100%) (VX2 liver tumor) | mean proportion of apoptotic cells in tumor (TUNEL) (VX2 liver tumor) | mean proportion of proliferating cells in tumor (Ki67) (VX2 liver tumor) | mean tumor necrosis rate (VX2 liver tumor) | mean tumor volume one day before TAE procedure (VX2 liver tumor) [mm^3] | IC50 (Huh7 cells; Homo sapiens, Huh-7) [µM] | liver and renal toxicity (ALT, AST, TBIL, CREA in serum) [1] | IC50 (HUVEC cells [2]; CCK8, 48 h treatment in medium with 5% FBS, absorbance 450 nm, mean ± SD, read-out: IC50, cytotoxicity in HUVEC cells) [µM] | IC50 (Huh7 cells) [µM] | cell migration of HUVEC (wound epithelial gap) (HUVEC cells [3]; 20 μM) | proapoptotic effect in Huh 7 cells (Huh 7 cells) | cellular toxicity in HUVEC cells (HUVEC cells [2]; CCK8, 48 h, up to 80 μM) | proapoptotic effect in HUVEC cells (HUVEC cells [4]) | cellular toxicity in Huh7 cells (Huh7 cells; CCK8, 48 h, up to 80 μM) | cell proliferation or migration of HUVEC (wound healing) (HUVEC cells [3]; 80 μM)
1 | COc1cccc2c1C(=O)c1c(O)c3c(c(O)c1C2=O)C[C@@](O)(C(=O)CO)C[C@@H]3O[C@H]1C[C@H](N)[C@H](O)[C@H](C)O1 [DOX, doxorubicin] | 1382.9 ± 563.7 | significantly lower than that of the NS group | significantly higher than that in NS group | significantly lower than that in NS group | 81.4% ± 2.3 | 889.0 ± 317.7 | 0.243 ± 0.076 | – | – | – | – | – | – | – | – | –
2 | CC(=O)N[C@@H](CCCCN)C(=O)N[C@@H](CC(C)C)C(=O)NC(C)(C)C(=O)N[C@@H](CCCCN)C(=O)N[C@@H](CC(C)C)C(=O)NC(C)(C)C(=O)N[C@@H](CCCCN)C(=O)N[C@@H](CCCCN)C(=O)N[C@@H](CC(C)C)C(=O)NC(C)(C)C(=O)N[C@@H](CCCCN)C(=O)N[C@@H](CC(C)C)C(=O)NC(C)(C)C(=O)N[C@@H](CCCCN)C(N)=O [KLU] (Ac-KL[Aib]KL[Aib]KKL[Aib]KL[Aib]K-NH2) | 1321.4 ± 210.4 | significantly lower than that of the NS group | significantly higher than that in NS group | significantly lower than that in NS group | 79.5% ± 8.0 | 991.8 ± 114.2 | – | no significant liver or renal toxicity | 33.8 ± 0.98 | 36.3 ± 2.7 | the wound epithelial gap was unchanged or even bigger | – | – | – | – | –
3 | Ac-QKRKRKKSRYKS-NH2 [QR] | – | – | – | – | – | – | – | – | – | – | – | didn’t show obvious proapoptotic effect | negligible toxicity | didn’t show obvious proapoptotic effect | negligible toxicity | not affected
